Source: a melting point compilation (Tetko et al.)

| SMILES | melting point [°C] |
| --- | --- |
| COC(=O)c1cn(CC(=O)O)nn1 | 176 to 178 |
| CCc1nc(C=O)c2ccccn12 | 103 to 105 |
| Cc1ccc(NC(=O)CCl)c(Cl)c1 | 98 to 100 |
| Cc1c(CCl)cc(C(=O)O)cc1CCl | 157 to 159 |
| O=C1CC(C(=O)O)C(C(=O)O)C1 (configuration not stated) | 186 to 188 |
| COC(=O)C(NS(C)(=O)=O)C(C)C (configuration not stated) | 46 to 48 |
| Cc1c(C(=O)O)nnn1-c1ccc(Cl)cc1F | 164 to 166 |
| CC(C(=O)Nc1cccc(N)c1)n1cccn1 (configuration not stated) | 135 to 137 |
| NC1CCc2[nH]ncc2C1 (configuration not stated) | 168 to 170 |
| O=C1NC2(CCCC2)C(=O)N1Cc1ccc(Cl)nc1 | 169 to 171 |
| Cc1ccc(C(N)=S)c(C)c1 | 59 to 63 |
| CC(C)N1CCC(N2CCNCC2)CC1 | 46 to 48 |
| O=C(O)c1sccc1S(=O)(=O)C(F)F | 121 to 123 |
| CCCOc1ccc(C(=O)O)cc1OC | 182 to 184 |
| O=C(O)CCc1ccncc1 | 209 to 211 |
| COC(=O)c1ccc(O)c(C(C)=O)c1 | 96 to 98 |
| CC(C)(C)OC(=O)NC(CN)CN | 58 to 60 |
| O=C(O)CNC(=O)c1c(F)cccc1Cl | 197 to 199 |
| O=C(O)CSc1nnc(-c2ccccc2F)n1-c1ccccc1 | 210 to 212 |
| ClCc1nnc(-c2cccc(Cl)c2)o1 | 76 to 78 |
| Cc1cc(N)c2c(n1)CCCC2 | 121 to 123 |
| ClCc1sc2ccccc2c1Cl | 77 to 79 |

| SMILES | melting point [°C] |
| --- | --- |
| CCCC(C)(N)C(=O)O (configuration not stated) | 269 to 271 |
| CC(C#N)CSc1ccccc1NC(=O)CCl (configuration not stated) | 94 to 96 |
| CS(=O)(=O)CC(=O)c1ccccc1F | 77 to 79 |
| CC(Oc1ccc(Cl)cc1[N+](=O)[O-])C(=O)O (configuration not stated) | 119 to 121 |
| Cc1cc(C(=O)O)cc(S(=O)(=O)Cl)c1C | 171 to 173 |
| CCNC(=O)c1cc(Cl)ccn1 | 60 to 62 |
| CC(C)CCNC(=O)CC(=O)NCCC(C)C | 69 to 71 |
| N#Cc1ncc(C(=O)O)cc1Br | 177 to 179 |
| O=C(O)CNC1CCS(=O)(=O)C1 (configuration not stated) | 241 to 243 |
| CNC(=O)NC(=O)CCCCl | 122 to 124 |
| NCC(O)c1ccc(F)c(F)c1 (configuration not stated) | 53 to 55 |
| CCNc1nc2cc(Cl)ccc2s1 | 118 to 120 |
| C/C(=N\O)c1sc(C)nc1C | 131 to 133 |
| NC1(c2nnn[nH]2)CCC1 | 254 to 256 |
| CC1(C)CCC(C)(O)CC1 | 49 to 51 |
| N#CCc1ccc([N+](=O)[O-])cn1 | 62 to 64 |
| Nc1nnc(SCC(=O)O)s1 | 196 to 198 |
| CS(=O)(=O)NCCc1ccc(C(=O)CCl)s1 | 110 to 112 |
| Cc1nn(CCO)c(N)c1C | 129 to 131 |
| Nc1nc(SCCO)n[nH]1 | 126 to 128 |
| Cc1cn2cccnc2n1 | 97 to 99 |
| COc1ccccc1C(N)=NO | 105 to 107 |

| SMILES | melting point [°C] |
| --- | --- |
| Cc1ccccc1C(N)CO (configuration not stated) | 99 to 101 |
| Cc1csc(Nc2ccccc2)n1 | 74 to 76 |
| CNC(=O)c1ccccc1O | 83 to 85 |
| Nc1ccn(CCc2ccccn2)n1 | 69 to 71 |
| Cc1nnc2ccc(C(=O)O)cn12 | 307 to 309 |
| O=C(O)c1cc(Cl)ccc1I | 162 to 164 |
| Cc1nc(NC(=N)N)nc2ccccc12 | 339 to 341 |
| N#Cc1cc([N+](=O)[O-])cnc1O | 259 to 261 |
| Cn1cc(C(=O)O)c(-c2cccs2)n1 | 179 to 181 |
| CC(Cl)C(=O)NC1CCCC1 (configuration not stated) | 111 to 113 |
| Cc1ccc(S(=O)(=O)Cl)c([N+](=O)[O-])c1 | 97 to 99 |
| Nc1cc(Cl)ccc1-n1ccnc1 | 154 to 156 |
| Cc1oc(-c2ccco2)nc1CCl | 58 to 60 |
| CC(C)C(=O)Nc1cc2ccccc2cc1C(=O)O | 203 to 205 |
| Cn1nc(-c2ccccc2)nc1CC#N | 116 to 118 |
| CC(C)(C)C(Br)C(N)=O (configuration not stated) | 91 to 93 |
| CCOc1ccccc1C(N)(C(=O)O)C(F)(F)F (configuration not stated) | 119 to 121 |
| Cc1cc([N+](=O)[O-])cc(S(=O)(=O)Cl)c1C | 66 to 68 |
| OCc1coc(-c2ccccc2)n1 | 79 to 81 |
| Cc1ccc(C(N)=O)c(O)c1 | 181 to 183 |
| COc1cc(C=O)c([N+](=O)[O-])cc1O | 207 to 209 |
| Cn1cc(C(=O)O)c(C(C)(C)C)n1 | 140 to 142 |

| SMILES | melting point [°C] |
| --- | --- |
| CCNC(=O)NC(=O)CCl | 138 to 140 |
| NC(=O)c1cn[nH]c1 | 223 to 225 |
| Cc1ccc(NC2=NC(C)(C)CS2)cc1 | 164 to 166 |
| Cc1c(C(=O)O)sc2nc3n(c(=O)c12)CCCCC3 | 253 to 255 |
| CC(=O)c1c(C)nn(CCS(C)(=O)=O)c1C | 139 to 141 |
| CN(C)S(=O)(=O)c1cccc(NC(=O)CCl)c1 | 74 to 78 |
| NC(=S)C1CC1 | 112 to 114 |
| COCCn1ncc2ccc(N)cc21 | 86 to 88 |
| CC(C)(C)C(=O)NCc1ccc(C(=O)CCl)s1 | 102 to 104 |
| Nc1nc(-c2ccccc2O)cs1 | 140 to 142 |
| COc1cc(C=O)cc(OC)c1OC(C)=O | 115 to 117 |
| CC(C)(C)OC(=O)N1CCC(OCC(=O)O)CC1 | 102 to 104 |
| O=C(O)c1ccc2nnn(O)c2c1 | 229 to 231 |
| Oc1ccc(Cl)cc1-c1cc(-c2ccco2)[nH]n1 | 166 to 168 |
| O=S(=O)(Cl)c1ccc2nc(Cl)c(Cl)nc2c1 | 88 to 90 |
| CC1=CC(C)=NS(=O)(=O)N1 | 119 to 121 |
| Nc1cc(F)cc(N2CCOCC2)c1 | 91 to 93 |
| CC(Cl)C(=O)Nc1cccc(I)c1 (configuration not stated) | 94 to 96 |
| C=CCS(N)(=O)=O | 31 to 33 |
| CN(CC(=O)O)C(N)=O | 141 to 143 |
| CC(C)C(C)(C#N)NC(=O)CCl (configuration not stated) | 71 to 73 |
| CC(Cl)C(=O)Nc1ccc(C(C)(C)C)cc1 (configuration not stated) | 143 to 145 |

The remaining lines, values ahead:

| melting point [°C] | SMILES |
| --- | --- |
| 66 to 68 | COCCNc1ccc(C#N)cc1 |
| 145 to 147 | CC(C)(C)OC(=O)NC1CCN(Cc2cc(Cl)cc(Cl)c2)CC1 |
| 95 to 97 | O=C(O)C1CSc2ccccc21 (configuration not stated) |
| 53 to 55 | COC(=O)c1nc(Cl)ccc1Cl |
| 63 to 65 | CCOc1ccc(C(=O)CCl)cc1 |
| 91 to 93 | CCOC(=O)c1ccn(C)c(=O)c1 |
| 329 to 331 | O=C(O)c1cc(-c2ccc(C(F)(F)F)cc2)no1 |
| 104 to 106 | O=c1oc2ccccc2n1CCO |
| 224 to 226 | COc1ccc(S(N)(=O)=O)cc1C(=O)O |
| 153 to 155 | NS(=O)(=O)C=Cc1cccc(Br)c1 |
| 328 to 330 | O=C(O)C1=NN(c2nc3ccccc3[nH]2)C(=O)CC1 |
| 277 to 279 | NS(=O)(=O)c1ccc(N2CCOCC2)c(C(=O)O)c1 |
| 146 to 148 | CCC(O)(C(N)=O)c1ccc(Br)cc1 (configuration not stated) |
| 86 to 88 | Ic1ccc2ncccc2c1 |
| 151 to 153 | O=C1NCCNc2ccccc21 |
| 240 to 242 | Cc1cnn(-c2ccc(C(=O)O)cc2)c1 |
| 96 to 98 | CNc1ccccc1S(C)(=O)=O |
| 106 to 108 | CC(Cl)C(=O)N1CCc2ccccc21 (configuration not stated) |
| 170 to 172 | CC(=O)c1ccc(NS(=O)(=O)c2ccc(C)cc2)cc1 |
| 161 to 165 | Cc1cc(C)cc(OCC(=O)N2Cc3ccccc3CC2C(=O)O)c1 (configuration not stated) |

| melting point [°C] | SMILES |
| --- | --- |
| 71 to 73 | N#Cc1ccc(OCc2ccccc2)nc1 |
| 93 to 95 | CC(=O)N1CCCc2ccc(S(=O)(=O)Cl)cc21 |
| 152 to 160 | O=C(NO)c1ccc(Br)s1 |
| 153 to 155 | Cc1ccc(S(=O)(=O)N2CCN(C(=O)C(C)Cl)CC2)cc1 (configuration not stated) |
| 214 to 216 | O=C(O)c1cnn(-c2ccc(F)cc2)n1 |
| 129 to 131 | CCOc1cccc(S(N)(=O)=O)c1 |
| 75 to 77 | CC(C)(C)c1ccc(C2CCCC(O)C2)cc1 (configuration not stated) |
| 109 to 111 | O=C(C1OCCc2ccccc21)N1CCCC1 (configuration not stated) |
| 157 to 159 | Clc1ccc(-c2ccccc2)nn1 |
| 112 to 114 | O=C(CCl)N(Cc1ccc(Cl)cc1)C12CC3CC(CC(C3)C1)C2 |
| 133 to 135 | NC(=O)C1CCCN(Cc2ccccc2N)C1 (configuration not stated) |
| 70 to 72 | CC(=O)c1ccc(O)c(CN2CCOCC2)c1 |
| 101 to 103 | CN1C(=O)CCc2cc(N)ccc21 |
| 148 to 150 | O=C(CBr)c1ccc(S(=O)(=O)N2CCOCC2)cc1 |
| 166 to 168 | Nc1[nH]ncc1-c1ccc2c(c1)OCO2 |
| 102 to 104 | N#Cc1cccc(N2CCOC2=O)c1 |
| 139 to 141 | Nc1ncc(-c2ccccc2)[nH]1 |
| 179 to 181 | CC(C)(C)OC(=O)Nc1cc(Br)ccc1C(=O)O |
| 115 to 117 | O=C(O)c1ccc(F)cc1OC(F)F |
| 170 to 172 | O=C(O)C1(Cc2nc3ccccc3s2)CCCCC1 |

| melting point [°C] | SMILES |
| --- | --- |
| 117 to 119 | Nc1cccc(-c2ccc3c(c2)OCCO3)n1 |
| 130 to 132 | CC1Nc2ccccc2NC1=O (configuration not stated) |
| 196 to 198 | NC(=O)c1ccc(N2CCSCC2)c(N)c1 |
| 120 to 122 | Nc1ccc(NC(=O)c2ccc(F)cc2)cc1C(F)(F)F |
| 294 to 296 | NS(=O)(=O)c1ccc(CCn2c(S)nc3ccccc3c2=O)cc1 |
| 71 to 73 | N#Cc1ccccc1-c1ccc(CN2CCOCC2)cc1 |
| 77 to 79 | CC(C)N1C(=O)C(=O)c2ccccc21 |
| 79 to 81 | O=[N+]([O-])c1cccc2c1CCCN2 |
| 170 to 172 | CC(=O)NCc1ccc(S(N)(=O)=O)cc1 |
| 187 to 189 | CC(=O)c1ccc2c(c1)C(C)(C)C(=O)N2 |
| 176 to 178 | O=C1NCCCCC1Oc1ccc(Br)cc1 (configuration not stated) |
| 50 to 52 | N#Cc1ccc(Oc2cccnc2)cc1 |
| 87 to 89 | O=[N+]([O-])C=Cc1cccc2ccccc12 |
| 164 to 166 | CC(=O)Nc1ccc(Oc2nc3ccccc3o2)cc1 |
| 219 to 221 | Cc1ccc(-c2csc(=O)[nH]2)cc1 |
| 193 to 195 | NS(=O)(=O)c1cccc(NC(=O)Oc2ccccc2)c1 |
| 149 to 151 | CCOc1cccc2c1C(=O)NC2=O |
| 258 to 260 | NC(=S)c1ccc(NC(=O)c2ccco2)cc1 |
| 74 to 76 | CN(CCCC(=O)O)S(=O)(=O)c1ccc(F)cc1 |
